The record followed here is patent US8598202B2, “Aryl-hydroxyethylamino-pyrimidines and triazines as modulators of fatty acid amide hydrolase” (Janssen Pharmaceutica NV, priority 2008, dated 2013).

Where a name gives a salt, the structure may show the parent alone. Read-outs that look alike come from different tables or passages of the source.

One assay has as its target T1, Rat FAAH-1 (Rattus norvegicus, UniProt P97612).
T1 sequence (P97612 1-579): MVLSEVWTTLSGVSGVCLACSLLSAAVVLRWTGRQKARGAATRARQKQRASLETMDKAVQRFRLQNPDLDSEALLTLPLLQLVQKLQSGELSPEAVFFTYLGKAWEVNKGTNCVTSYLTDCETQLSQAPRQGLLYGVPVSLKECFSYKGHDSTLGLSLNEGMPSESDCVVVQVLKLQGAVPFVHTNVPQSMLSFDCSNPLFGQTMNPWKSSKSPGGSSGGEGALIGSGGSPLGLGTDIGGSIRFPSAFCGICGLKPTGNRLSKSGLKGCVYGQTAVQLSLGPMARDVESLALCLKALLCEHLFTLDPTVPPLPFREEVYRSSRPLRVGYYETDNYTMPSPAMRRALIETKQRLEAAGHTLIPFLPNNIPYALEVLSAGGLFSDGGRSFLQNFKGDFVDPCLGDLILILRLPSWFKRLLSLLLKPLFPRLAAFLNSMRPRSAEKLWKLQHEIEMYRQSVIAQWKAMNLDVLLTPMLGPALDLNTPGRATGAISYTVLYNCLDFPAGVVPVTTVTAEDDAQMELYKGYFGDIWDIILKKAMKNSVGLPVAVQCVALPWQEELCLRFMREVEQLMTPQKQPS
Kind of assay: Assay Method 2: rat FAAH-1 assay, 3H-anandamide hydrolysis in homogenate of SK-N-MC cells transfected with rat FAAH.

The next assay deals with T2, FAAH (Homo sapiens, UniProt O00519).
T2 sequence (O00519 1-579): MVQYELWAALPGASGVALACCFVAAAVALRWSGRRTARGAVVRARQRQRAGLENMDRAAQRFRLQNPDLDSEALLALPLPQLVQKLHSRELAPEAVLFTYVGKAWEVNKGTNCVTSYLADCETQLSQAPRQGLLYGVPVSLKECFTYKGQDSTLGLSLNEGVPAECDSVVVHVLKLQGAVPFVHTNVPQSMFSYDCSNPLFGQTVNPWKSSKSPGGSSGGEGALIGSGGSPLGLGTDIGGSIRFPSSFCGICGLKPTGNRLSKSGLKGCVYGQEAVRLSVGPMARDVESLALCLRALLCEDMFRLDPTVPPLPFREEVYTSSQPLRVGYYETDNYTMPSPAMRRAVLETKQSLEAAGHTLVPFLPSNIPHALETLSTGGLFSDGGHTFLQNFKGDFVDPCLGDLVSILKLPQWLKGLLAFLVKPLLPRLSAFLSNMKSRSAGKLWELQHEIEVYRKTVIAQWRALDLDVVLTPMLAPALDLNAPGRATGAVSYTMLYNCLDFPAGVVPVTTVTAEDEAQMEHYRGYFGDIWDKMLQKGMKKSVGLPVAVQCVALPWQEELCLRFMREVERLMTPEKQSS
The assay is described as follows: Assay Method 1: FAAH assay, 3H-anandamide hydrolysis in homogenate of T84 cells or SK-N-MC cells transfected with human FAAH.

Usually IC50 stands for the point on the concentration scale where inhibition reaches its midpoint. With `Cn1ccc2cc(-c3cc(NC[C@H](O)c4ccccc4)ncn3)ccc21` [Example 90, (1R)-2-{[6-(1-Methyl-1H-indol-5-yl)pyrimidin-4-yl]amino}-1-phenylethanol trifluoroacetic acid salt], the IC50 came out at 675 nM against Rat FAAH-1 and 4 nM against FAAH.

For the molecule `OC(CNc1cc(-c2ccc(C(F)(F)F)c(Cl)c2)ncn1)c1cc2cc(Br)ccc2s1` (stereo not drawn) [Example 218, 1-(5-Bromo-1-benzothiophen-2-yl)-2-({6-[3-chloro-4-(trifluoromethyl)phenyl]pyrimidin-4-yl}amino)ethanol], the IC50 against Rat FAAH-1 is 1000 nM; at FAAH it was over 10000 nM.

Consider `CC(=O)c1ccc(-c2cc(NCC(O)c3ccccc3)ncn2)cc1` (stereo not drawn) [Example 228, 1-(4-{6-[(2-Hydroxy-2-phenylethyl)amino]pyrimidin-4-yl}phenyl)ethanone], for which the concentration for half-maximal inhibition (IC50) stood at 66 nM against Rat FAAH-1 and 26 nM on FAAH.

`O[C@@H](CNc1cc(-c2ccc3c(C(F)(F)F)csc3c2)ncn1)c1ccccc1` [Example 221]: the IC50 against Rat FAAH-1 is 480 nM; against FAAH, 19 nM.

`O[C@@H](CNc1cc(-c2cnc(N3CCOCC3)nc2)ncn1)c1ccccc1` [Example 69, (1R)-2-[(2′-Morpholin-4-yl-4,5′-bipyrimidin-6-yl)amino]-1-phenylethanol]: the IC50 on Rat FAAH-1 was over 10000 nM; on FAAH, 900 nM.

For `COc1cccc(C(O)CNc2cc(-c3ccc(OC(F)(F)F)cc3)ncn2)c1` (stereo not drawn) [Example 117], the IC50 came out at 22 nM on Rat FAAH-1 and 32 nM on FAAH.

On to `O=[N+]([O-])c1ccc(-c2cc(NCC(O)c3ccccc3)ncn2)cc1` (stereo not drawn) [Example 5, 2-{[6-(4-Nitrophenyl)pyrimidin-4-yl]amino}-1-phenylethanol trifluoroacetic acid salt], for which the IC50 came to 153 nM against Rat FAAH-1 and 132 nM against FAAH.

As for `COc1ccc(-c2cc(NC[C@H](O)c3ccccc3)ncn2)cc1F` [Example 71, (1R)-2-{[6-(3-Fluoro-4-methoxyphenyl)pyrimidin-4-yl]amino}-1-pPhenylethanol], the values for the IC50 against Rat FAAH-1 and at FAAH were 76 nM and 14 nM, respectively.

Regarding `OC(CNc1cc(-c2ccc(OC(F)(F)F)cc2)ncn1)c1ccncc1` (stereo not drawn) [Example 125, 1-Pyridin-4-yl-2-[(6-{4-[(trifluoromethyl)oxy]phenyl}pyrimidin-4-yl)amino]ethanol], the IC50 at Rat FAAH-1 was 5000 nM; against FAAH, 890 nM.

Regarding `O[C@@H](CNc1cc(-c2ccc(C(F)(F)F)c(Cl)c2)nc(C(F)(F)F)n1)c1ccccc1` [Example 93, (1R)-2-({6-[3-Chloro-4-(trifluoromethyl)phenyl]-2-(trifluoromethyl)pyrimidin-4-yl}amino)-1-phenylethanol trifluoroacetic acid salt], the values for the IC50 at Rat FAAH-1 and against FAAH were 152 nM and 183 nM, respectively.

Take `CCNc1nc(NC[C@H](O)c2ccccc2)cc(-c2ccc(C(F)(F)F)c(Cl)c2)n1` [Example 159, (1R)-2-({6-[3-Chloro-4-(trifluoromethyl)phenyl]-2-(ethylamino)pyrimidin-4-yl}amino)-1-phenylethanol trifluoroacetic acid salt]: the IC50 on Rat FAAH-1 came to 7 nM; against FAAH, 20 nM.

`O[C@@H](CNc1cc(-c2cc(F)c(OC(F)F)c(F)c2)ncn1)c1ccccc1` [Example 49, (1R)-2-({6-[4-(Difluoromethoxy)-3,5-difluorophenyl]pyrimidin-4-yl}amino)-1-phenylethanol trifluoroacetic acid salt]: the IC50 against Rat FAAH-1 stood at 9 nM; on FAAH, 2 nM.

On to `Cc1ccc(-c2cc(NC[C@H](O)c3ccccc3)ncn2)cc1Cl` [Example 39, (1R)-2-{[6-(3-Chloro-4-methylphenyl)pyrimidin-4-yl]amino}-1-phenylethanol trifluoroacetic acid salt], for which the values for the IC50 against Rat FAAH-1 and at FAAH were 60 nM and 18 nM, respectively.

`C[C@@H](Nc1cc(-c2ccc(OC(F)(F)F)cc2)ncn1)[C@@H](O)c1ccccc1` [Example 150, (1S,2R)-1-Phenyl-2-[(6-{4-[(trifluoromethyl)oxy]phenyl}pyrimidin-4-yl)amino]propan-1-ol]: the IC50 turned out to be 5000 nM on Rat FAAH-1 and 1500 nM against FAAH.

For the molecule `OC(CNc1cc(-c2ccc(OC(F)(F)F)cc2)ncn1)c1ccc(F)cc1` (stereo not drawn) [Example 113, 1-(4-Fluorophenyl)-2-[(6-{4-[(trifluoromethyl)oxy]phenyl}pyrimidin-4-yl)amino]ethanol], the IC50 on Rat FAAH-1 was found to be 41 nM; against FAAH, 18 nM.

For the molecule `O[C@@H](CNc1cc(-c2cc3cc(C(F)(F)F)ccc3s2)ncn1)c1ccccc1` [Example 184, (1R)-1-Phenyl-2-({6-[5-(trifluoromethyl)-1-benzothiophen-2-yl]pyrimidin-4-yl}amino)ethanol trifluoroacetic acid salt], the IC50 came to 160 nM against Rat FAAH-1 and 31 nM at FAAH.

As to `O[C@@H](CNc1cc(-c2ccc(F)c(Cl)c2)ncn1)c1ccccc1` [Example 83, (1R)-2-{[6-(3-Chloro-4-fluorophenyl)pyrimidin-4-yl]amino}-1-Phenylethanol trifluoroacetic acid salt], the IC50 at Rat FAAH-1 was 654 nM; against FAAH it was 210 nM.

With `Cc1ccc(-c2cc(NC[C@H](O)c3ccccc3)ncn2)cc1F` [Example 20, (1R)-2-{[6-(3-Fluoro-4-methylphenyl)pyrimidin-4-yl]amino}-1-phenylethanol trifluoroacetic acid salt], the IC50 came out at 181 nM on Rat FAAH-1 and 32 nM at FAAH.

With `O[C@@H](CNc1cc(-c2ccc3c(C(F)(F)F)noc3c2)ncn1)c1ccc(F)cc1` [Example 177, (1R)-1-(4-Fluorophenyl)-2-({6-[3-(trifluoromethyl)-1,2-benzisoxazol-6-yl]pyrimidin-4-yl}amino)ethanol trifluoroacetic acid salt], the IC50 at Rat FAAH-1 and against FAAH was 3 nM throughout.

For `O[C@@H](CNc1cc(-c2ccc(I)cc2)ncn1)c1ccccc1` [Example 142, (1R)-2-{[6-(4-Iodophenyl)pyrimidin-4-yl]amino}-1-phenylethanol], the IC50 was 60 nM against Rat FAAH-1 and 9 nM against FAAH.

As for `C[C@H](Nc1cc(-c2ccc(C(F)(F)F)c(Cl)c2)ncn1)[C@H](O)c1ccccc1` [Example 179], the IC50 on Rat FAAH-1 came to 40 nM; against FAAH, 9 nM.

Consider `O[C@@H](CNc1ncnc(-c2ccc(C(F)(F)F)cc2)n1)c1ccccc1` [Example 103, (1R)-1-Phenyl-2-({4-[4-(trifluoromethyl)phenyl]-1,3,5-triazin-2-yl}amino)ethanol trifluoroacetic acid salt], for which the IC50 against Rat FAAH-1 came to 350 nM; against FAAH it was 305 nM.

In the case of `O[C@H](CNc1cc(-c2ccc(C(F)(F)F)c(Cl)c2)ncn1)c1ccc(Cl)c(F)c1` [Example 145, (1S)-1-(4-Chloro-3-fluoro-phenyl)-2-[6-(3-chloro-4-trifluoromethyl-phenyl)-pyrimidin-4-ylamino]-ethanol], the IC50 is 2000 nM against Rat FAAH-1 and 7000 nM on FAAH.

Consider `OC(CNc1cc(-c2ccc3c(c2)OCO3)ncn1)c1ccccc1` (stereo not drawn) [Example 232, 2-(6-Benzo[1,3]dioxol-5-yl-pyrimidin-4-ylamino)-1-phenyl-ethanol], for which the IC50 against Rat FAAH-1 turned out to be 1000 nM; against FAAH, 150 nM.

`CC(C)(C)NS(=O)(=O)c1ccc(-c2cc(NC[C@H](O)c3ccccc3)ncn2)cc1` [Example 171, N-tert-Butyl-4-(6-{[(2R)-2-hydroxy-2-phenylethyl]amino}pyrimidin-4-yl)benzenesulfonamide]: the IC50 is over 10000 nM against Rat FAAH-1 and 1600 nM at FAAH.

Turning to `Oc1ccc(-c2cc(NCC(O)c3ccccc3)ncn2)cc1` (stereo not drawn) [CE6, 4-[6-(2-Hydroxy-2-phenyl-ethylamino)-pyrimidin-4-yl]-phenol, reference compound], the IC50 is over 10000 nM on Rat FAAH-1 (read-out: Assay 2 IC50, Table 2, Comparative Examples, rat FAAH-1) and 7000 nM on FAAH (read-out: Assay 1 IC50, Table 2, Comparative Examples, human FAAH).

In the case of `O[C@@H](CNc1cc(-c2ccc3sccc3c2)ncn1)c1ccccc1` [Example 100, (1R)-2-{[6-(1-Benzothiophen-5-yl)pyrimidin-4-yl]amino}-1-phenylethanol trifluoroacetic acid salt], the IC50 against Rat FAAH-1 stood at 1400 nM; at FAAH it was 43 nM.
